In ChEMBL document CHEMBL3045678, “Synthesis of Some New Antimicrobial Thiadiazolyl and Oxadiazolyl Quinoline Derivatives” (2005):
Values after ≈ are worked out from the molar mass of the structure shown. Active and inactive are the calls of the source. No cut-off for these calls is given here.

What was measured:
Assay type in all cases: functional
Pseudomonas aeruginosa [1] = experiment: Antimicrobial activity against Pseudomonas aeruginosa ATCC 9027 at 1 mg/ml after 24 hr by cup diffusion technique; conditions: for zone of inhibition at 1000 µg/mL: ATCC 9027, 24 h, read-out: DIZ
Staphylococcus aureus [2] = experiment: Antimicrobial activity against Staphylococcus aureus ATCC 6538p at 1 mg/ml after 24 hr by cup diffusion technique; conditions: for zone of inhibition at 1000 µg/mL: read-out: DIZ
Candida albicans [3] = experiment: Antimicrobial activity against Candida albicans ATCC 10231 at 1 mg/ml after 24 hr by cup diffusion technique; conditions: for zone of inhibition at 1000 µg/mL: ATCC 10231, 24 h, read-out: DIZ
Escherichia coli = experiment: Antimicrobial activity against Escherichia coli NCTC 10418 at 1 mg/ml after 24 hr by cup diffusion technique; conditions: for zone of inhibition at 1000 µg/mL: NCTC 10418, 24 h, read-out: DIZ
Staphylococcus aureus [4] = experiment: Antimicrobial activity against Staphylococcus aureus ATCC 6538p after 24 hr by two-fold dilution method
Candida albicans [5] = experiment: Antimicrobial activity against Candida albicans ATCC 10231 after 48 hr by two-fold dilution method
Pseudomonas aeruginosa [6] = experiment: Antimicrobial activity against Pseudomonas aeruginosa ATCC 9027 after 24 hr by two-fold dilution method; conditions: ATCC 9027, 24 h

Row | Compound | zone of inhibition at 1000 µg/mL (Staphylococcus aureus [2]) | zone of inhibition at 1000 µg/mL (Candida albicans [3]) | zone of inhibition at 1000 µg/mL (Escherichia coli) | zone of inhibition at 1000 µg/mL (Pseudomonas aeruginosa [1]) | further results
1 | CCSc1nnc(-c2cc(C)nc3ccccc23)o1 | 15 mm | 19 mm | 19 mm | – | diameter of the inhibition zone (DIZ) (Pseudomonas aeruginosa [1]): inactive
2 | CCS(=O)(=O)c1nnc(NC(=O)c2cc(-c3ccccc3)nc3ccccc23)s1 | 31 mm | 19 mm | 19 mm | 15 mm | MBC (Staphylococcus aureus [4]): 125 µg/mL (≈ 294 µM); MIC (Staphylococcus aureus [4]): 125 µg/mL (≈ 294 µM)
3 | CS(=O)(=O)c1nnc(NC(=O)c2ccnc3ccccc23)s1 | 13 mm | 19 mm | 18 mm | 13 mm | –
4 | Cc1cc(C(=O)Nc2nnc(S(=O)(=O)Cc3ccccc3)s2)c2ccccc2n1 | 28 mm | 19 mm | 19 mm | 13 mm | MBC (Staphylococcus aureus [4]): > 500 µg/mL; MIC (Staphylococcus aureus [4]): 62.5 µg/mL (≈ 147 µM)
5 | NYSTATIN | – | – | – | – | diameter of the inhibition zone (DIZ) (Pseudomonas aeruginosa [1]): inactive; diameter of the inhibition zone (DIZ) (Staphylococcus aureus [2]): inactive; inhibition zone (IZ) (Candida albicans [3]): 37 mm; MIC (Candida albicans [5]): 25 µg/mL; diameter of the inhibition zone (DIZ) (Escherichia coli): inactive
6 | CSc1nnc(-c2cc(C)nc3ccccc23)o1 | 17 mm | 26 mm | 17 mm | 13 mm | MBC (Candida albicans [5]; ATCC 10231, 48 h): 125 µg/mL (≈ 486 µM); MIC (Candida albicans [5]; ATCC 10231, 48 h): 125 µg/mL (≈ 486 µM)
7 | CSc1nnc(NC(=O)c2ccnc3ccccc23)s1 | 17 mm | 19 mm | 18 mm | 15 mm | –
8 | Cc1cc(-c2nnc(S(C)(=O)=O)o2)c2ccccc2n1 | 19 mm | 27 mm | 18 mm | 13 mm | MBC (Candida albicans [5]; ATCC 10231, 48 h): 125 µg/mL (≈ 432 µM); MIC (Candida albicans [5]; ATCC 10231, 48 h): 31.2 µg/mL (≈ 108 µM)
9 | CCS(=O)(=O)c1nnc(NC(=O)c2cc(C)nc3ccccc23)s1 | 13 mm | 18 mm | 17 mm | 13 mm | –
10 | O=C(O)c1cn(C2CC2)c2cc(N3CCNCC3)c(F)cc2c1=O [CIPROFLOXACIN] | 25 mm | – | 30 mm | 40 mm | MIC (Staphylococcus aureus [4]): 2 µg/mL (≈ 6.04 µM); MIC (Pseudomonas aeruginosa [6]): 4 µg/mL (≈ 12.1 µM); diameter of the inhibition zone (DIZ) (Candida albicans [3]): inactive
11 | CSc1nnc(NC(=O)c2cc(-c3ccccc3)nc3ccccc23)s1 | 15 mm | 18 mm | 16 mm | 20 mm | MBC (Pseudomonas aeruginosa [6]): > 500 µg/mL; MIC (Pseudomonas aeruginosa [6]): 250 µg/mL (≈ 661 µM)
12 | c1ccc(CSc2nnc(-c3cc(-c4ccccc4)nc4ccccc34)o2)cc1 | 13 mm | 18 mm | 18 mm | – | diameter of the inhibition zone (DIZ) (Pseudomonas aeruginosa [1]): inactive
13 | O=C(Nc1nnc(SCc2ccccc2)s1)c1ccnc2ccccc12 | 15 mm | 19 mm | 18 mm | 17 mm | –
14 | Cc1cc(-c2nnc(SCc3ccccc3)o2)c2ccccc2n1 | 13 mm | 19 mm | 18 mm | – | diameter of the inhibition zone (DIZ) (Pseudomonas aeruginosa [1]): inactive
15 | CS(=O)(=O)c1nnc(NC(=O)c2cc(-c3ccccc3)nc3ccccc23)s1 | 30 mm | 19 mm | 18 mm | 15 mm | MBC (Staphylococcus aureus [4]): 31.2 µg/mL (≈ 76.1 µM); MIC (Staphylococcus aureus [4]): 31.2 µg/mL (≈ 76.1 µM)
16 | CCS(=O)(=O)c1nnc(NC(=O)c2ccnc3ccccc23)s1 | 20 mm | 19 mm | 19 mm | 20 mm | MBC (Staphylococcus aureus [4]): > 500 µg/mL; MIC (Staphylococcus aureus [4]): 125 µg/mL (≈ 359 µM); MBC (Pseudomonas aeruginosa [6]): 125 µg/mL (≈ 359 µM); MIC (Pseudomonas aeruginosa [6]): 125 µg/mL (≈ 359 µM)

Row | Compound | zone of inhibition at 1000 µg/mL (Staphylococcus aureus [2]) | zone of inhibition at 1000 µg/mL (Candida albicans [3]) | zone of inhibition at 1000 µg/mL (Escherichia coli) | zone of inhibition at 1000 µg/mL (Pseudomonas aeruginosa [1]) | further results
17 | CCSc1nnc(NC(=O)c2cc(C)nc3ccccc23)s1 | 17 mm | 18 mm | 18 mm | 14 mm | –
18 | O=S(=O)(Cc1ccccc1)c1nnc(-c2cc(-c3ccccc3)nc3ccccc23)o1 | 12 mm | 19 mm | 18 mm | – | diameter of the inhibition zone (DIZ) (Pseudomonas aeruginosa [1]): inactive
19 | CCSc1nnc(-c2cc(-c3ccccc3)nc3ccccc23)o1 | – | 19 mm | 18 mm | 15 mm | diameter of the inhibition zone (DIZ) (Staphylococcus aureus [2]): inactive
20 | O=C(Nc1nnc(S(=O)(=O)Cc2ccccc2)s1)c1ccnc2ccccc12 | 27 mm | 19 mm | 18 mm | 20 mm | MBC (Staphylococcus aureus [4]): 500 µg/mL (≈ 1220 µM); MIC (Staphylococcus aureus [4]): 125 µg/mL (≈ 305 µM); MBC (Pseudomonas aeruginosa [6]): > 500 µg/mL; MIC (Pseudomonas aeruginosa [6]): 62.5 µg/mL (≈ 152 µM)
21 | Cc1cc(-c2n[nH]c(=S)o2)c2ccccc2n1 | 20 mm | 18 mm | 18 mm | 12 mm | MBC (Staphylococcus aureus [4]): > 500 µg/mL; MIC (Staphylococcus aureus [4]): 62.5 µg/mL (≈ 257 µM)
22 | Cc1cc(C(=O)Nc2nnc(SCc3ccccc3)s2)c2ccccc2n1 | 15 mm | 24 mm | 18 mm | 17 mm | MBC (Candida albicans [5]; ATCC 10231, 48 h): 250 µg/mL (≈ 637 µM); MIC (Candida albicans [5]; ATCC 10231, 48 h): 250 µg/mL (≈ 637 µM)
23 | CCSc1nnc(NC(=O)c2cc(-c3ccccc3)nc3ccccc23)s1 | 15 mm | 18 mm | 19 mm | 20 mm | MBC (Pseudomonas aeruginosa [6]): 500 µg/mL (≈ 1270 µM); MIC (Pseudomonas aeruginosa [6]): 62.5 µg/mL (≈ 159 µM)
24 | Cc1cc(-c2nnc(S(=O)(=O)Cc3ccccc3)o2)c2ccccc2n1 | 16 mm | 19 mm | 18 mm | – | diameter of the inhibition zone (DIZ) (Pseudomonas aeruginosa [1]): inactive
25 | CSc1nnc(-c2cc(-c3ccccc3)nc3ccccc23)o1 | 12 mm | 18 mm | 18 mm | 13 mm | –
26 | CCSc1nnc(NC(=O)c2ccnc3ccccc23)s1 | 15 mm | 17 mm | 17 mm | 14 mm | –
27 | CCS(=O)(=O)c1nnc(-c2cc(-c3ccccc3)nc3ccccc23)o1 | 18 mm | 18 mm | 17 mm | 13 mm | –
28 | CCS(=O)(=O)c1nnc(-c2cc(C)nc3ccccc23)o1 | 16 mm | 24 mm | 19 mm | 16 mm | MBC (Candida albicans [5]; ATCC 10231, 48 h): 125 µg/mL (≈ 412 µM); MIC (Candida albicans [5]; ATCC 10231, 48 h): 125 µg/mL (≈ 412 µM)
29 | CS(=O)(=O)c1nnc(-c2cc(-c3ccccc3)nc3ccccc23)o1 | 20 mm | 18 mm | 18 mm | 15 mm | –
30 | O=C(Nc1nnc(S(=O)(=O)Cc2ccccc2)s1)c1cc(-c2ccccc2)nc2ccccc12 | 20 mm | 18 mm | 19 mm | 14 mm | MBC (Staphylococcus aureus [4]): 500 µg/mL (≈ 1030 µM); MIC (Staphylococcus aureus [4]): 500 µg/mL (≈ 1030 µM)
31 | O=C(Nc1nnc(SCc2ccccc2)s1)c1cc(-c2ccccc2)nc2ccccc12 | 13 mm | 18 mm | 16 mm | 15 mm | –
